Format in all cases: functional
Experiment [1] deals with Aspergillus niger. The experiment is described as follows: Antifungal activity against Aspergillus niger by agar diffusion technique. For orientation: Agar diffusion results depend on both activity and mobility in agar.
Experiment [2] relates to Bacillus subtilis. The experiment is described as follows: Antimicrobial activity against Bacillus subtilis by agar diffusion technique.
The subject of experiment [3] is Aspergillus oryzae. Briefly: Antifungal activity against Aspergillus oryzae by agar diffusion technique.
Experiment [4] deals with Priestia megaterium. Briefly: Antimicrobial activity against Bacillus megaterium by agar diffusion technique.
Experiment [5] deals with Escherichia coli. The experiment is described as follows: Antimicrobial activity against Escherichia coli by agar diffusion technique.
The test system of experiment [6] is Priestia megaterium. Briefly: Antimicrobial activity against Bacillus megaterium at 25 ug/mL by agar diffusion technique. The conditions noted are these: read-out: IZ.
Experiment [7] relates to Bacillus subtilis. Briefly: Antimicrobial activity against Bacillus subtilis at 25 ug/mL by agar diffusion technique. The conditions noted are these: read-out: IZ.
In experiment [8] the test system is Escherichia coli. Briefly: Antimicrobial activity against Escherichia coli at 25 ug/mL by agar diffusion technique. The conditions noted are these: read-out: IZ.
Experiment [9] has as its system Aspergillus niger. The experiment is described as follows: Antifungal activity against Aspergillus niger at 25 ug/mL by agar diffusion technique. The conditions noted are these: read-out: IZ.
Experiment [10] concerns Aspergillus oryzae. Briefly: Antifungal activity against Aspergillus oryzae at 25 ug/mL by agar diffusion technique. The conditions noted are these: read-out: IZ.

Consider `O=C1CSC(N/N=C/C2=C(Cl)c3ccccc3CC2)=N1`, for which the “inhibition zone (IZ)” value in the experiment on Aspergillus niger [1] came to 66 mm; in the experiment on Bacillus subtilis [2], 35 mm; in the experiment with Aspergillus oryzae [3] it was 78 mm; with Priestia megaterium [4], 40 mm; in the experiment on Escherichia coli [5], 30 mm.

For `ClC1=C(/C=N/Nc2nc(-c3ccccc3)cs2)CCc2ccccc21`, the “inhibition zone (IZ)” value in the experiment on Aspergillus niger [1] stood at 77 mm; in the experiment with Bacillus subtilis [2], 65 mm; in the experiment with Aspergillus oryzae [3], 79 mm; in the experiment on Priestia megaterium [4], 68 mm; in the experiment on Escherichia coli [5] it was 56 mm.

Consider `CCOC(=O)C1SC(N/N=C/C2=C(Cl)c3ccccc3CC2)=NC1=O` (configuration not stated), for which the “inhibition zone (IZ)” value in the experiment on Aspergillus niger [1] was found to be 69 mm; in the experiment on Bacillus subtilis [2] it was 42 mm; in the experiment on Aspergillus oryzae [3] it was 73 mm; in the experiment on Priestia megaterium [4], 35 mm.

Turning to `Cc1csc(N/N=C/C2=C(Cl)c3ccccc3CC2)n1`, the “inhibition zone (IZ)” value in the experiment on Aspergillus niger [1] was determined as 72 mm; with Bacillus subtilis [2] it was 55 mm; with Aspergillus oryzae [3], 75 mm; in the experiment on Priestia megaterium [4], 60 mm; with Escherichia coli [5] it was 40 mm.

Turning to `ClC1=C(/C=N/Nc2nc(-c3ccccc3)c(/N=N/c3ccccc3)s2)CCc2ccccc21`, the “inhibition zone (IZ)” value with Aspergillus niger [1] is 79 mm; in the experiment on Bacillus subtilis [2], 85 mm; with Aspergillus oryzae [3] it was 82 mm; with Priestia megaterium [4] it was 79 mm; in the experiment with Escherichia coli [5] it was 49 mm.

Regarding `COc1ccc(/N=N/c2sc(N/N=C/C3=C(Cl)c4ccccc4CC3)nc2-c2ccccc2)cc1`, the “inhibition zone (IZ)” value in the experiment on Aspergillus niger [1] turned out to be 75 mm; in the experiment on Bacillus subtilis [2], 90 mm; in the experiment with Aspergillus oryzae [3] it was 86 mm; with Priestia megaterium [4] it was 84 mm; in the experiment with Escherichia coli [5] it was 55 mm.

In the case of `O=C1/C(=C\c2ccc(Cl)cc2)S/C(=N\N=C\C2=C(Cl)c3ccccc3CC2)N1c1ccccc1`, the “inhibition zone (IZ)” value is given as 58 mm with Aspergillus niger [1], 42 mm with Bacillus subtilis [2], 69 mm with Aspergillus oryzae [3] and 43 mm in the experiment on Priestia megaterium [4].

Turning to `O=C1N=C(N/N=C/C2=C(Cl)c3ccccc3CC2)S/C1=C/c1ccc(Cl)cc1`, the “inhibition zone (IZ)” value with Aspergillus niger [1] is 75 mm; in the experiment on Bacillus subtilis [2], 34 mm; with Aspergillus oryzae [3], 74 mm; in the experiment on Priestia megaterium [4] it was 34 mm; in the experiment on Escherichia coli [5], 25 mm.

Take `COc1ccc(/N=N/c2sc(N/N=C/C3=C(Cl)c4ccccc4CC3)nc2C)cc1`: the “inhibition zone (IZ)” value in the experiment on Aspergillus niger [1] is 80 mm; with Bacillus subtilis [2], 87 mm; with Aspergillus oryzae [3], 86 mm; in the experiment on Priestia megaterium [4], 85 mm; with Escherichia coli [5] it was 50 mm.

As for `O=c1c2c(ncn1/N=C/C1=C(Cl)c3ccccc3CC1)sc(=S)n2-c1ccccc1`, the “inhibition zone (IZ)” value in the experiment with Aspergillus niger [1] is 78 mm; with Bacillus subtilis [2], 95 mm; in the experiment on Aspergillus oryzae [3], 86 mm; in the experiment on Priestia megaterium [4], 92 mm; in the experiment with Escherichia coli [5] it was 85 mm.

As for `Nc1sc(=S)n(-c2ccccc2)c1C(=O)N/N=C/C1=C(Cl)c2ccccc2CC1`, the “inhibition zone (IZ)” value in the experiment with Aspergillus niger [1] is 64 mm; in the experiment with Bacillus subtilis [2], 89 mm; in the experiment on Aspergillus oryzae [3], 75 mm; in the experiment on Priestia megaterium [4] it was 82 mm; in the experiment on Escherichia coli [5] it was 60 mm.

Turning to `O=C1CS/C(=N\N=C\C2=C(Cl)c3ccccc3CC2)N1c1ccccc1`, the “inhibition zone (IZ)” value in the experiment on Aspergillus niger [1] was 63 mm; with Bacillus subtilis [2], 66 mm; in the experiment with Aspergillus oryzae [3] it was 71 mm; in the experiment on Priestia megaterium [4] it was 55 mm.

Turning to `Cc1nc(N/N=C/C2=C(Cl)c3ccccc3CC2)sc1/N=N/c1ccccc1`, the “inhibition zone (IZ)” value is listed as 84 mm in the experiment with Aspergillus niger [1]; 81 mm with Bacillus subtilis [2]; 89 mm with Aspergillus oryzae [3]; 86 mm in the experiment on Priestia megaterium [4]; 60 mm in the experiment on Escherichia coli [5].

Turning to `CC1(C)S[C@@H]2[C@H](NC(=O)[C@H](N)c3ccccc3)C(=O)N2[C@H]1C(=O)O` [AMPICILLIN], the zone of inhibition at 25 µg/mL in the experiment with Priestia megaterium [6] came to 29 mm; with Bacillus subtilis [7], 40 mm; with Escherichia coli [8], 26 mm; in the experiment on Aspergillus niger [9] it was 33 mm.

As to `O=C(N[C@H](CO)[C@H](O)c1ccc([N+](=O)[O-])cc1)C(Cl)Cl` [CHLORAMPHENICOL], the zone of inhibition at 25 µg/mL with Priestia megaterium [6] is 55 mm; in the experiment on Bacillus subtilis [7], 30 mm; in the experiment on Escherichia coli [8], 48 mm; in the experiment on Aspergillus niger [9], 35 mm.

Turning to `OC(Cn1cncn1)(Cn1cncn1)c1ccc(F)cc1F` [FLUCONAZOLE], the figures for the zone of inhibition at 25 µg/mL with Aspergillus oryzae [10] and in the experiment on Aspergillus niger [9] were 16 mm and 22 mm, respectively.

Values taken from ChEMBL document CHEMBL1147204, “Synthesis and antimicrobial evaluation of some new thiazole, thiazolidinone and thiazoline derivatives starting from 1-chloro-3,4-dihydronaphthalene-2-carboxaldehyde” (2007).
